According to US10544143B2, “4-azaindole compounds” (BRISTOL-MYERS SQUIBB COMPANY, priority 2017, dated 2020):

Assays:
human TLR9 = human TLR9 (Homo sapiens (Human), UniProt Q9NR96); test: TLR9 inhibition reporter assay (HEK-Blue SEAP); details: read-out: TLR9 IC50; HEK-Blue cells overexpressing human TLR9, SEAP reporter, ODN2006 5 nM;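 note: SEAP driven by an IFN-β minimal promoter with NF-κB and AP-1 sites, read after 22 h, compounds dosed 0.05 nM–50 µM, inhibition scaled between agonist plus DMSO and reference-inhibitor wells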
Chain of human TLR9 (Q9NR96 26-1032): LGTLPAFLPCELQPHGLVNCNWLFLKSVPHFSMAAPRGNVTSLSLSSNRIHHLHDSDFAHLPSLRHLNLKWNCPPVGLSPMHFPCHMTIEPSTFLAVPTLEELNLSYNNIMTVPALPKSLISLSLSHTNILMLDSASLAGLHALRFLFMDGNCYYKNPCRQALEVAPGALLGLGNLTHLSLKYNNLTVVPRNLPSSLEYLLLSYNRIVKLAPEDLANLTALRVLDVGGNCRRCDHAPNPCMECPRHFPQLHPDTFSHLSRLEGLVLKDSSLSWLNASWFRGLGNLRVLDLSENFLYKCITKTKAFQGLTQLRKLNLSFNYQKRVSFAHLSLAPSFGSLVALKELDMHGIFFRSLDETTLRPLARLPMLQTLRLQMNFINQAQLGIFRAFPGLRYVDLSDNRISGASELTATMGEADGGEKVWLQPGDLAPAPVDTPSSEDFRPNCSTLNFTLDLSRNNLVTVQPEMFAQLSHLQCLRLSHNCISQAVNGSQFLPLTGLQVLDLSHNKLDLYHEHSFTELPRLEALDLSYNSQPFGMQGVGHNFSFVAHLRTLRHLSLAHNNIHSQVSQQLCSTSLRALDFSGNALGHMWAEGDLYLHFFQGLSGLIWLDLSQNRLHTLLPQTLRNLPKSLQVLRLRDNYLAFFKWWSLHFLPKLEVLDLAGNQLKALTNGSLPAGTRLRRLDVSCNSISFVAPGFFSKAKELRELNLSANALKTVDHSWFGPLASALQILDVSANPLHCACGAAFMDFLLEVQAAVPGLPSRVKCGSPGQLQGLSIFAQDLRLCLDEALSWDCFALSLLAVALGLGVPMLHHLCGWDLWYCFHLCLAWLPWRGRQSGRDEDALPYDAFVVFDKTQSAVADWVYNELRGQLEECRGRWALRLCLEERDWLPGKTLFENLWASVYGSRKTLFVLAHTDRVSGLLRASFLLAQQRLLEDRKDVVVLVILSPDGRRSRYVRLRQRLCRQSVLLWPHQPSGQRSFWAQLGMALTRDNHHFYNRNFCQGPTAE

human TLR7 = human TLR7 (Homo sapiens (Human), UniProt Q9NYK1); test: TLR7 inhibition reporter assay (HEK-Blue SEAP); assay type: cell-based; details: HEK-Blue cells overexpressing human TLR7, SEAP reporter, gardiquimod 7.5 μM
Chain of human TLR7 (Q9NYK1 27-1049): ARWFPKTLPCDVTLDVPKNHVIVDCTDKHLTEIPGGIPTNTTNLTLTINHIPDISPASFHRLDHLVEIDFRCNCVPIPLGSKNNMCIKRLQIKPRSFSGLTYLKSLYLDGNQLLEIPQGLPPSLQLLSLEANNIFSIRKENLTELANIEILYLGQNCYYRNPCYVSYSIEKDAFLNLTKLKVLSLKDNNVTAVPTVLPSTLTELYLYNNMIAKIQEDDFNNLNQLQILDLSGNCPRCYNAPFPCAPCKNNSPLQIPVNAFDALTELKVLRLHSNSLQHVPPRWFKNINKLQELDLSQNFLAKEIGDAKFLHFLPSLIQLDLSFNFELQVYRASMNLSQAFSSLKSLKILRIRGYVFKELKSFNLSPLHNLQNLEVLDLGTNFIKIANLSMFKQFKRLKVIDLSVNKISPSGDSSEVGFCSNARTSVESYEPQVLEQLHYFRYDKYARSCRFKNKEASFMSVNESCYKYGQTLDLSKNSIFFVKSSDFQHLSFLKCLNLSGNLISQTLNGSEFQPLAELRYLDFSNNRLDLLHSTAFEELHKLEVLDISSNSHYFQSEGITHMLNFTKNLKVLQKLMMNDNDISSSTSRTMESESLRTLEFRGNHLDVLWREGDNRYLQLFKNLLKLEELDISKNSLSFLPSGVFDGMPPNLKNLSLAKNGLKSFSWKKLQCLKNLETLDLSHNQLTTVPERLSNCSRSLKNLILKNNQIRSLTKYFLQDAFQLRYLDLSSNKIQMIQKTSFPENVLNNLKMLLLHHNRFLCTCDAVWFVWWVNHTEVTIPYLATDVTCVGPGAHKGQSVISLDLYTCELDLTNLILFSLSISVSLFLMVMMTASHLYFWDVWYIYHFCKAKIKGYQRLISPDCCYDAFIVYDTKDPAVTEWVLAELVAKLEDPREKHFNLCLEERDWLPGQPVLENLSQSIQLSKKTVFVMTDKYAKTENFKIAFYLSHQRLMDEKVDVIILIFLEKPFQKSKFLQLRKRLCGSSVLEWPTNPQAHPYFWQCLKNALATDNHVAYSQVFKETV

human TLR8 = human TLR8 (Homo sapiens (Human), UniProt Q9NR97); test: TLR8 inhibition reporter assay (HEK-Blue SEAP); details: read-out: TLR8 IC50; HEK-Blue cells overexpressing human TLR8, SEAP reporter, R848 15.9 μM;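 note: SEAP driven by IFN-β minimal promoter carrying NF-κB and AP-1 sites, compounds dosed 0.05 nM to 50 µM for 22 h, inhibition scaled between agonist-plus-DMSO and reference-inhibitor wells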
Chain of human TLR8 (Q9NR97 27-1041): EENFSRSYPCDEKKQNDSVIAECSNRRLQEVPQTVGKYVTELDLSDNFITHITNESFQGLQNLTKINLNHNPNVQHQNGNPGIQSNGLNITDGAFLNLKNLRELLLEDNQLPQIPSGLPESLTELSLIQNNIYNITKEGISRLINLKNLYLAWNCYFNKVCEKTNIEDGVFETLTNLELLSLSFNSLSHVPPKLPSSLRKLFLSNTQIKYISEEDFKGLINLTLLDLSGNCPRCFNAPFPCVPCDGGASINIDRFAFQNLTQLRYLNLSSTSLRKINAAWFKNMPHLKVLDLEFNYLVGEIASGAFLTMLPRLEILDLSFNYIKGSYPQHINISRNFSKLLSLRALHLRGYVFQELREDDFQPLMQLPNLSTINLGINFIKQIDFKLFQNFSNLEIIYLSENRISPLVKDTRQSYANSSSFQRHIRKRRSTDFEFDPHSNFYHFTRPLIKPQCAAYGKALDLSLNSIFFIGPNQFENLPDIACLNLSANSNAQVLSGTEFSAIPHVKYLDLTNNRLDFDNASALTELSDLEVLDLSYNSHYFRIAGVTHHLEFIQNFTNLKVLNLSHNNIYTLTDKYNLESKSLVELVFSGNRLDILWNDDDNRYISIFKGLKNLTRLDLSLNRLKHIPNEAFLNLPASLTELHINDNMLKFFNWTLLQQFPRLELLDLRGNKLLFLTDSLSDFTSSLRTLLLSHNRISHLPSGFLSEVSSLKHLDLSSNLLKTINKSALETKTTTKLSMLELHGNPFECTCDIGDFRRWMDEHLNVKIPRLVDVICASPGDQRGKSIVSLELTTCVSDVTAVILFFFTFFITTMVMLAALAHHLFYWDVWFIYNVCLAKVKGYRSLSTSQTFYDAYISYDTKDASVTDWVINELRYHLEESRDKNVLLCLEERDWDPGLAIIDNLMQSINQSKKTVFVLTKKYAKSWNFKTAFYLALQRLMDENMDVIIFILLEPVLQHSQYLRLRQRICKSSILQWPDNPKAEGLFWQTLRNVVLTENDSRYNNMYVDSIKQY

| IC50 (human TLR9) | IC50 (human TLR7) | IC50 (human TLR8) | SMILES |
| --- | --- | --- | --- |
| 5.66 µM | 1.1 nM | 1.9 nM | Cc1c(-c2[nH]c3ccc(C4CCC(NC5CCS(=O)(=O)C5)CC4)nc3c2C(C)C)cn2ncnc2c1C (stereo not drawn) [Example 465] |
| 7.42 µM | 1.3 nM | 6 nM | Cc1c(-c2[nH]c3ccc(C4CCC(NC5CCS(=O)(=O)C5)CC4)nc3c2C(C)C)cn2ncnc2c1C (stereo not drawn) [Example 470] |
| 1.45 µM | 0.46 nM | 0.43 nM | Cc1c(-c2[nH]c3ccc(C4CCC(NCC5(C)COC5)CC4)nc3c2C(C)C)cn2ncnc2c1C (stereo not drawn) [Example 474] |
| 9.75 µM | 0.81 nM | 2.6 nM | Cc1c(-c2[nH]c3ccc(C4CCC(N(C)CC5(S(C)(=O)=O)CC5)CC4)nc3c2C(C)C)cn2ncnc2c1C (stereo not drawn) [Example 476] |
| 6.16 µM | 8.3 nM | 6 nM | Cc1c(-c2[nH]c3ccc(C4CCC(NCC5(C)COC5)CC4)nc3c2C(C)C)cn2ncnc2c1C (stereo not drawn) [Example 477] |
| 24.5 µM | 13 nM | 15 nM | Cc1c(-c2[nH]c3ccc(C4CCC(N(CC#N)CC5(S(C)(=O)=O)CC5)CC4)nc3c2C(C)C)cn2ncnc2c1C (stereo not drawn) [Example 478] |
| 23.7 µM | 2.9 nM | 10 nM | Cc1c(-c2[nH]c3ccc(C4CCC(N(C)CC5(S(C)(=O)=O)CC5)CC4)nc3c2C(C)C)cn2ncnc2c1C (stereo not drawn) [Example 479] |
| 2.52 µM | 1.1 nM | 2.2 nM | Cc1c(-c2[nH]c3ccc(C4CCC(NCC(=O)NC(C)(C)C)CC4)nc3c2C(C)C)cn2ncnc2c1C (stereo not drawn) [Example 485] |
| 6.67 µM | 20 nM | 20 nM | Cc1c(-c2[nH]c3ccc(C4CCC(NCC(=O)NC(C)(C)C)CC4)nc3c2C(C)C)cn2ncnc2c1C (stereo not drawn) [Example 489] |
| 0.677 µM | 0.89 nM | 8 nM | Cc1c(-c2[nH]c3ccc(C4CCC5(CC4)CNC5)nc3c2C(C)C)cn2ncnc2c1C [Example 491, 6-(3-isopropyl-5-(2-azaspiro[3.5]nonan-7-yl)-1H-pyrrolo[3,2-b]pyridin-2-yl)-7,8-dimethyl-[1,2,4]triazolo[1,5-a]pyridine] |
| > 50 µM | 1760 nM | 3790 nM | Cc1c(-c2[nH]c3ccc(C4CCC5(CC4)CN(C(C)C)C5)nc3c2C(C)C)cn2ncnc2c1C [Example 493] |
| 14.1 µM | 5.2 nM | 2.8 nM | Cc1c(-c2[nH]c3ccc(C4CCC(NC5(C(=O)N(C)C)CCCC5)CC4)nc3c2C(C)C)cn2ncnc2c1C (stereo not drawn) [Example 494] |
| 2.9 µM | 0.79 nM | 5.1 nM | Cc1cc2[nH]c(-c3cn4ncnc4c(C)c3C)c(C(C)C)c2nc1C1CCC(NC2COC2)CC1 (stereo not drawn) [Example 502] |
| 7.6 µM | 3.5 nM | 4.9 nM | Cc1c(-c2[nH]c3cc(F)c(C4CCC(NC5CCOCC5)CC4)nc3c2C(C)C)cn2ncnc2c1C (stereo not drawn) [Example 505] |
| 3.18 µM | 0.41 nM | 0.42 nM | Cc1c(-c2[nH]c3cc(F)c(C4CCC(N)CC4)nc3c2C(C)C)cn2ncnc2c1C (stereo not drawn) [Example 506] |
| > 50 µM | 5.9 nM | 28 nM | CCN(CCS(C)(=O)=O)C1CCC(c2nc3c(C(C)C)c(-c4cn5ncnc5c(C)c4C)[nH]c3cc2F)CC1 (stereo not drawn) [Example 510] |

Second part, the molecule before the results:

| SMILES | IC50 (human TLR9) | IC50 (human TLR7) | IC50 (human TLR8) |
| --- | --- | --- | --- |
| Cc1c(-c2[nH]c3ccc(C4CCC(N(CC#N)CCS(C)(=O)=O)CC4)nc3c2C(C)C)cn2ncnc2c1C (stereo not drawn) [Example 457] | 0.622 µM | 0.32 nM | 0.3 nM |
| Cc1c(-c2[nH]c3ccc(C4CCC(N(CC#N)CCS(C)(=O)=O)CC4)nc3c2C(C)C)cn2ncnc2c1C (stereo not drawn) [Example 458] | 9.84 µM | 5 nM | 10 nM |
| Cc1c(-c2[nH]c3ccc(C4CCC(N(CC#N)CC(=O)N(C)C)CC4)nc3c2C(C)C)cn2ncnc2c1C (stereo not drawn) [Example 459] | 2.79 µM | 6.2 nM | 4.3 nM |
| Cc1c(-c2[nH]c3ccc(C4CCC(N(CCO)CCS(C)(=O)=O)CC4)nc3c2C(C)C)cn2ncnc2c1C (stereo not drawn) [Example 461] | 8.47 µM | 2.6 nM | 1.7 nM |
| CCN(CC(=O)N(C)C)C1CCC(c2ccc3[nH]c(-c4cn5ncnc5c(C)c4C)c(C(C)C)c3n2)CC1 (stereo not drawn) [Example 462] | 4.54 µM | 6.9 nM | 8.4 nM |
| Cc1c(-c2[nH]c3ccc(C4CCC(N(CCO)CC(=O)N(C)C)CC4)nc3c2C(C)C)cn2ncnc2c1C (stereo not drawn) [Example 463] | 16 µM | 7.4 nM | 24 nM |
| Cc1c(-c2[nH]c3ccc(C4CCC(NCC5CCCCS5(=O)=O)CC4)nc3c2C(C)C)cn2ncnc2c1C (stereo not drawn) [Example 464] | 1.77 µM | 0.68 nM | 0.85 nM |
| Cc1c(-c2[nH]c3ccc(C4CCC(N)CC4)nc3c2C(C)C)cn2ncnc2c1C (stereo not drawn) [Example 466] | 5.8 µM | 59 nM | 204 nM |
| CCN(CC(=O)N(C)C)C1CCC(c2ccc3[nH]c(-c4cn5ncnc5c(C)c4C)c(C(C)C)c3n2)CC1 (stereo not drawn) [Example 467] | 0.413 µM | 1.2 nM | 3.5 nM |
| Cc1c(-c2[nH]c3ccc(C4CCC(N)CC4)nc3c2C(C)C)cn2ncnc2c1C (stereo not drawn) [Example 469] | 1.71 µM | 0.98 nM | 2.9 nM |
| Cc1c(-c2[nH]c3ccc(C4CCC(NCC5CCCCS5(=O)=O)CC4)nc3c2C(C)C)cn2ncnc2c1C (stereo not drawn) [Example 471] | 4.71 µM | 2.8 nM | 3.2 nM |
| Cc1c(-c2[nH]c3ccc(C4CCC(NC5(C)COC5)CC4)nc3c2C(C)C)cn2ncnc2c1C (stereo not drawn) [Example 472] | 2.51 µM | 0.34 nM | 1.1 nM |
| Cc1c(-c2[nH]c3ccc(C4CCC(NC5(C)COC5)CC4)nc3c2C(C)C)cn2ncnc2c1C (stereo not drawn) [Example 473] | 7.37 µM | 7.1 nM | 9.6 nM |
| Cc1c(-c2[nH]c3ccc(C4CCC(N(CC#N)CC5(S(C)(=O)=O)CC5)CC4)nc3c2C(C)C)cn2ncnc2c1C (stereo not drawn) [Example 475] | 3.5 µM | 1.4 nM | 2.2 nM |
| CCN(CC1(S(C)(=O)=O)CC1)C1CCC(c2ccc3[nH]c(-c4cn5ncnc5c(C)c4C)c(C(C)C)c3n2)CC1 (stereo not drawn) [Example 480] | 11.7 µM | 2 nM | 14 nM |
| Cc1c(-c2[nH]c3ccc(C4CCC(N(CCO)CC5(S(C)(=O)=O)CC5)CC4)nc3c2C(C)C)cn2ncnc2c1C (stereo not drawn) [Example 481] | 13 µM | 0.82 nM | 3.9 nM |
| Cc1c(-c2[nH]c3ccc(C4CCC(N(CCO)CC5(S(C)(=O)=O)CC5)CC4)nc3c2C(C)C)cn2ncnc2c1C (stereo not drawn) [Example 482] | > 50 µM | 96 nM | 238 nM |

| SMILES | IC50 (human TLR9) | IC50 (human TLR7) | IC50 (human TLR8) |
| --- | --- | --- | --- |
| Cc1c(-c2[nH]c3ccc(C4CCC(NC5(CO)COC5)CC4)nc3c2C(C)C)cn2ncnc2c1C (stereo not drawn) [Example 483] | 5.13 µM | 0.94 nM | 1.2 nM |
| Cc1c(-c2[nH]c3ccc(C4CCC(NC5(CO)COC5)CC4)nc3c2C(C)C)cn2ncnc2c1C (stereo not drawn) [Example 484] | 7.07 µM | 6.1 nM | 11 nM |
| CNC(=O)C(C)(C)NC1CCC(c2ccc3[nH]c(-c4cn5ncnc5c(C)c4C)c(C(C)C)c3n2)CC1 (stereo not drawn) [Example 487] | 2.29 µM | 0.75 nM | 0.49 nM |
| COCCN(C)C(=O)CNC1CCC(c2ccc3[nH]c(-c4cn5ncnc5c(C)c4C)c(C(C)C)c3n2)CC1 (stereo not drawn) [Example 488] | 5.36 µM | 11 nM | 8.4 nM |
| Cc1c(-c2[nH]c3ccc(C4CCC(NC(C)(C)C(=O)N(C)C)CC4)nc3c2C(C)C)cn2ncnc2c1C (stereo not drawn) [Example 495] | 3.6 µM | 3.3 nM | 1.3 nM |
| Cc1c(-c2[nH]c3ccc(C4CCC(NC(C)(C)C(=O)N5CCOCC5)CC4)nc3c2C(C)C)cn2ncnc2c1C (stereo not drawn) [Example 496] | 2.62 µM | 7.5 nM | 2.1 nM |
| COCCN(C1CCC(c2ccc3[nH]c(-c4cn5ncnc5c(C)c4C)c(C(C)C)c3n2)CC1)C1(CO)COC1 (stereo not drawn) [Example 499] | > 50 µM | 607 nM | 833 nM |
| COCCN(C1CCC(c2ccc3[nH]c(-c4cn5ncnc5c(C)c4C)c(C(C)C)c3n2)CC1)C1(CO)COC1 (stereo not drawn) [Example 500] | > 50 µM | 19 nM | 39 nM |
| Cc1c(-c2[nH]c3ccc(C4CCC(N(C)CC(N)=O)CC4)nc3c2C(C)C)cn2ncnc2c1C (stereo not drawn) [Example 501] | 9.55 µM | 6.3 nM | 16 nM |
| Cc1cc2[nH]c(-c3cn4ncnc4c(C)c3C)c(C(C)C)c2nc1C1CCC(NC2COC2)CC1 (stereo not drawn) [Example 503] | 2.5 µM | 1.4 nM | 9.2 nM |
| Cc1c(-c2[nH]c3cc(F)c(C4CCC(NC5CCOCC5)CC4)nc3c2C(C)C)cn2ncnc2c1C (stereo not drawn) [Example 504] | 3.74 µM | 0.55 nM | 0.64 nM |
| Cc1c(-c2[nH]c3cc(F)c(C4CCC(N)CC4)nc3c2C(C)C)cn2ncnc2c1C (stereo not drawn) [Example 507] | 8.49 µM | 1.1 nM | 2.4 nM |
| CCN(CC(=O)N(C)C)C1CCC(c2nc3c(C(C)C)c(-c4cn5ncnc5c(C)c4C)[nH]c3cc2F)CC1 (stereo not drawn) [Example 508] | 6.85 µM | 1.1 nM | 3.3 nM |
| CCN(CC(=O)N(C)C)C1CCC(c2nc3c(C(C)C)c(-c4cn5ncnc5c(C)c4C)[nH]c3cc2F)CC1 (stereo not drawn) [Example 509] | 9.11 µM | 17 nM | 30 nM |
| CCN(CCS(C)(=O)=O)C1CCC(c2nc3c(C(C)C)c(-c4cn5ncnc5c(C)c4C)[nH]c3cc2F)CC1 (stereo not drawn) [Example 511] | > 50 µM | 5.8 nM | 4.8 nM |
| Cc1cc(-c2[nH]c3ccc(C4CCNCC4)nc3c2C(C)C)cc(C)n1 [Example 512] | 0.304 µM | 1.1 nM | 5.6 nM |
